This assay addresses T1, Histone deacetylase 8 (Homo sapiens, UniProt Q9BY41).
T1 sequence (Q9BY41 whole entry): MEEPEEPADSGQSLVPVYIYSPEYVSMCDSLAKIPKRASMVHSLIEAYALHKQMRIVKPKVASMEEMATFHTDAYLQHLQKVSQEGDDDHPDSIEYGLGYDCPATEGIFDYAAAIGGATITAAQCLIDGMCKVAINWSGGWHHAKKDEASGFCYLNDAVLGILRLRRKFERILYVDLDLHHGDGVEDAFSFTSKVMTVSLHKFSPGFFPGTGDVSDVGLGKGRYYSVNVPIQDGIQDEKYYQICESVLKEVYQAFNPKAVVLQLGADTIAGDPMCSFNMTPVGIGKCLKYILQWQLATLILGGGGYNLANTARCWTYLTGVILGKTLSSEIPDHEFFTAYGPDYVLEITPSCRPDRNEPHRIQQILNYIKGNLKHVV
Nature of the assay: Enzymatic Assay: HDAC-Glo I/II Assay Kit was purchased from Promega Corporation (Madison, Wis.), including the following components: HDAC-Glo I/II Buffer (25 mM Tris buffer, pH 8.0, supplemented with 137 mM: NaCl, 2.7 mM KCl, 1% v/v Triton X-100 and 1 mM: MgCl2), luminogenic substrates Boc-GAK(Ac)-aminoluciferin (HDAC-Glo I/II substrate), proprietary developer reagent (containing trypsin). Assay:The HDAC8 reaction was performed at room temperature in white 384-well polystyrene, flat-bottom microtiter plate (Greiner Bio-one, Monroe, N.C.) in a final volume of 20 μL. Test compounds were first diluted serially in DMSO and 100 nL were transferred to the plate wells by Echo 550 (Labcyte, Sunnyvale, Calif.) before the addition of other reaction components. The final concentration of DMSO in the assay was 0.5%. The HDAC-Glo I/II assay reagent was prepared by rehydration of lyophilized HDAC-Glo I/II substrate in 10 mL. HDAC-Glo I/II assay buffer followed with the addition of 10 μL of developer reagent. 10 uL of 3 nM HDAC8 in the HDAC-Glo I/II assay buffer were first dispensed into the microliter plate containing the compounds and incubated at room temperature for 30 min. The reactions were initiated with the addition of 10 uL HDAC-Glo I/II assay reagent with Multidrop.

Broadly, the IC50 is the concentration at which inhibition is half-maximal. The low end stands for greater potency in that assay, the high end for weaker potency in that assay.

The compound `Cn1nc(C(Cc2ccccc2)C(=O)NO)c2ccc(Cl)cc21` (configuration not stated) showed a half-inhibitory concentration (IC50) below 0.05 µM. `CC1CCN(c2cccc3nn(C(Cc4ccccc4)C(=O)NO)cc23)CC1` (configuration not stated) displayed an IC50 above 0.5 µM.

The values above are taken from ChEMBL document CHEMBL5727873, “Heterocyclic compounds and uses thereof” (2020).
